System: HL60 cells
Assay: AsedaSciences SYSTEMETRIC Cell Health Screen (flow cytometry toxicity profiling)
Settings: HL60, 4 h, 5 nM–100 µM; for CC: Cell Cycle score / CM: Cell morphology score / CMI: Cell membrane integrity score / GSH: Glutathione score / MMP: Mitochondrial membrane depolarization score / ROS: Reactive superoxide species score / NMI1: Nuclear membrane integrity 1 score / NMI2: Nuclear membrane integrity 2 score: probability 0–1, n = 2; for CHI: Cell Health Index: probability (0–1) of high-risk class, n = 2
Source text: To prioritize further optimization, in addition to cellular potency, we utilized the AsedaSciences® […]® Cell Health Screen. This live cell flow cytometry (FC) screen was developed to assess human safety risk for candidate pharmaceutical small molecules at the early hit-to-lead stage of development. The screen works by estimating the risk using a supervised machine learning (ML) classifier to assess a multiparametric cellular stress phenotype, produced by the test compound, relative to a training set of known compounds (Table S1). This screen has been designed for early pipeline risk estimation regardless of pharmaceutical class/disease type, so it uses HL60 as the reporter cell line.
The ML classifier was trained with 300 historically known compounds (on market or withdrawn drugs, research compounds, etc.), which were divided into two outcome classes based upon literature, clinical trials, and market histories where applicable. This external curation informed an outcome of “high-risk” or “low-risk”. All 300 compounds were also processed through the automated FC screen, populating each of the two classes with frequency distributions of empirical cell-based phenotypes.
To estimate human safety risk for an unknown compound, the ML classifier assesses the similarity of the test compound’s cell-based phenotype to the distributions of phenotypes in the two outcome classes. […] Phenotypes are derived from twelve FC detection parameters, including light scatter and a series of fluorescent physiological reporter dyes, that track cell stress-related endpoints.
To produce the Cell Health Index, the ML classifier uses all twelve FC parameters simultaneously in a multidimensional logistic regression model, so the CHI contains the most predictive power. In addition to the Cell Health Index, Table 4 also reports probability scores for eight cell stress-related endpoints. These scores are produced individually by passing information to the ML classifier relating to parameters that inform that endpoint. For example, to produce the cell morphology (CM) score, the ML classifier only uses the FC detection parameters for forward scatter (informing change in cell diameter) and side scatter (informing change in optical granularity of the cell) to inform the model. Together, these eight endpoints provide a “biological fingerprint”, allowing assessment of the degree to which SAR series members behave differently across endpoints.
In a 384-well platform, HL60 cells were exposed to a 10-step, 3 × dilution series of each test compound (5 nM–100 µM) for 4 h at 37 °C with 5% CO2. Each dilution series was screened in duplicate, occupying a total of 20 wells, allowing 16 test compounds to be assayed per plate. Each row contained one positive and one negative control well, for a total of 16 replicate positive/negative control pairs on each assay plate. Compound formatting, cell deposition, and dye application were performed robotically so that final assay conditions comprised 100,000 cells in a 40 µL volume. After the 4 h compound exposure, cells were immediately stained with a panel of fluorescent dyes that report physiological signatures of both mitochondrial dysfunction and gross cell stress. Fluorescence and forward/side-scatter data were collected using automated FC with no gating. FC data are processed by an automated algorithm for producing quality control measures and ML classification of compound phenotypes. • 2. HL60 cell culture production
HL60 cells were produced as suspension cultures in glass 850 cm^2 roller bottles with vented caps, at 1 RPM, 5% CO2, and 37 °C. […] Culture density was maintained at or below 1 × 10^6 cells/mL.

SMILES | CC: Cell Cycle score | CM: Cell morphology score | CMI: Cell membrane integrity score | GSH: Glutathione score | MMP: Mitochondrial membrane depolarization score | ROS: Reactive superoxide species score | NMI1: Nuclear membrane integrity 1 score | NMI2: Nuclear membrane integrity 2 score | CHI: Cell Health Index
CC(C)(C)c1ccc(C(O)CCCN2CCC(C(O)(c3ccccc3)c3ccccc3)CC2)cc1 (stereo not drawn) [Terfenadine, reference compound] | 0.98 | 1.00 | 1.00 | 1.00 | 1.00 | 1.00 | – | – | –
NC(=O)c1ncn([C@@H]2O[C@H](CO)[C@@H](O)[C@H]2O)n1 [Ribavirin, reference compound] | 0.040 | 0.010 | 0.070 | 0.060 | 0.000 | 0.23 | 0.16 | 0.030 | 0.16
Cc1ccc(-c2cc(C(F)(F)F)nn2-c2ccc(S(N)(=O)=O)cc2)cc1 [Celecoxib, reference compound] | 0.61 | 0.56 | 0.94 | 0.36 | 0.51 | 0.96 | 0.53 | 0.51 | 0.54
CSc1ccc2c(c1)N(CCC1CCCCN1C)c1ccccc1S2 (stereo not drawn) [Thioridazine, reference compound] | 0.89 | 1.00 | 1.00 | 1.00 | 1.00 | 1.00 | 1.00 | 1.00 | 0.85
CC/C(=C(\c1ccccc1)c1ccc(OCCN(C)C)cc1)c1ccccc1 [Tamoxifen, reference compound] | 0.98 | 1.00 | 1.00 | 1.00 | 1.00 | 1.00 | 1.00 | 0.99 | –
Cc1cn([C@@H]2C[C@@H](O)[C@H](CO)O2)c(=O)[nH]c1=O [Telbivudine, reference compound] | 0.020 | 0.010 | 0.040 | 0.070 | 0.010 | 0.030 | 0.11 | 0.050 | –
CN(C)CCOC(c1ccccc1)c1ccccc1 [Diphenhydramine, reference compound] | 0.030 | 0.010 | 0.030 | – | 0.030 | 0.040 | – | – | –
C=C(C)[C@H]1Cc2c(ccc3c2O[C@@H]2COc4cc(OC)c(OC)cc4[C@@H]2C3=O)O1 [Rotenone, reference compound] | 0.70 | 0.93 | 0.83 | 0.79 | 0.99 | 0.94 | 0.54 | 0.76 | –
CCCCc1oc2ccccc2c1C(=O)c1cc(I)c(OCCN(CC)CC)c(I)c1 [Amiodarone, reference compound] | 0.96 | 0.97 | 0.80 | – | 0.87 | 0.19 | – | – | –
CN(CCOc1ccc(CC2SC(=O)NC2=O)cc1)c1ccccn1 (stereo not drawn) [Rosiglitazone, reference compound] | 0.27 | 0.49 | 0.23 | 0.53 | 0.050 | 0.070 | 0.23 | 0.27 | 0.37
CC(c1cc2ccccc2s1)N(O)C(N)=O (stereo not drawn) [Zileuton, reference compound] | 0.11 | 0.020 | 0.010 | 0.020 | 0.060 | 0.070 | 0.17 | 0.080 | 0.19
COc1ccc(/C=C/C(=O)Nc2ccccc2C(=O)O)cc1OC [Tranilast, reference compound] | 0.10 | 0.020 | 0.13 | 0.030 | 0.17 | 0.12 | 0.73 | 0.30 | 0.32
O=C(O)CCc1nc(-c2ccccc2)c(-c2ccccc2)o1 [Oxaprozin, reference compound] | 0.060 | 0.00 | 0.090 | 0.030 | 0.000 | 0.16 | 0.040 | 0.12 | –
CC(C(=O)O)c1cccc(C(=O)c2ccccc2)c1 (stereo not drawn) [Ketoprofen, reference compound] | 0.050 | 0.00 | 0.030 | 0.010 | 0.010 | 0.18 | – | – | –
[H]/N=C(/N)N/C(=N/[H])NCCc1ccccc1 [Phenformin, reference compound] | 0.28 | 0.74 | 0.27 | 0.17 | 0.37 | 0.77 | 0.82 | 0.080 | 0.41
